What was measured:
Cf1 cell line = conditions: TC-100 + 10% FBS
Method: (§1) The dipteran (D. melanogaster) cell lines Kc1 and SL2, and the lepidopteran cell lines Sf9 (S. frugiperda), Ld652Y (L. dispar) and Cf1 (Choristoneura fumeferana) were tested for sensitivity to Zeocin in order to establish whether Zeocin was toxic in standard culture conditions to cell lines from these disparate insect orders. Zeocin is thought to exert its toxic effects by binding to DNA to induce double strand breaks. Such strand cleavage is thought to inhibit growth by disruption of DNA replication, which in turn interferes with subsequent cell division. Accordingly, cells already committed to division would not be expected to be affected by Zeocin until the next round of DNA replication; it would therefore be expected that cells treated with Zeocin may divide once, but will be unable to undergo further mitotic divisions since their DNA will not be intact.
(§2) In accordance with the current understanding of Zeocin's mechanism of action, the minimal inhibitory concentration of Zeocin is described herein as the amount of antibiotic required to limit the culture to one doubling. Growth curves for the determination of inhibitory concentrations of Zeocin in the Kc1, SL2 and Sf9 cell lines (FIG. 4a) were performed in rotating 1.5 ml microcentrifuge tubes containing 1 ml of TC-100 complete medium (pH=6.2) with 10% fetal bovine serum (Life Technologies, Gaithersburg, Md., U.S.A.), 0.5–1.0×10^6 cells and varying concentrations of Zeocin (obtained from Invitrogen, San Diego, Calif.) at 27° C. Samples were removed daily, stained with 0.4% trypan blue and the number of viable cells determined in quadruplicate using a hemocytometer. The minimal inhibitory Zeocin concentrations affecting Ld652Y and Cf1 cell lines were determined by seeding approximately 5,000 cells in a total volume of 200 μl TC-100 complete medium +10% fetal bovine serum+Zeocin into wells of 96 well microtitre plates.

Kc1 cell line = test system: Kc1 cell line
Method: as §1, §2

Ld652Y cell line = conditions: Zeocin 10 μg/ml
Method: as §1, §2

Sf9 cell line = conditions: TC-100 + 10% FBS, 27° C.
Method: as §1, §2

Method for SL2 cell line: The dipteran (D. melanogaster) cell lines Kc1 and SL2, and the lepidopteran cell lines Sf9 (S. frugiperda), Ld652Y (L. dispar) and Cf1 (Choristoneura fumeferana) were tested for sensitivity to Zeocin in order to establish whether Zeocin was toxic in standard culture conditions to cell lines from these disparate insect orders. […] Accordingly, cells already committed to division would not be expected to be affected by Zeocin until the next round of DNA replication; it would therefore be expected that cells treated with Zeocin may divide once, but will be unable to undergo further mitotic divisions since their DNA will not be intact.
In accordance with the current understanding of Zeocin's mechanism of action, the minimal inhibitory concentration of Zeocin is described herein as the amount of antibiotic required to limit the culture to one doubling. […] Samples were removed daily, stained with 0.4% trypan blue and the number of viable cells determined in quadruplicate using a hemocytometer.

For `Cc1c(N)nc([C@H](CC(N)=O)NC[C@H](N)C(N)=O)nc1C(=O)N[C@H](C(=O)N[C@H](C)[C@@H](O)[C@H](C)C(=O)N[C@H](C(=O)NCCC1=N[C@@H](c2nc(C(=O)NCCCCN=C(N)N)cs2)CS1)[C@@H](C)O)[C@@H](O[C@@H]1O[C@@H](CO)[C@@H](O)[C@H](O)[C@@H]1O[C@H]1O[C@H](CO)[C@@H](O)[C@H](OC(N)=O)[C@@H]1O)c1cnc[nH]1` [Zeocin], the “Zeocin concentration required to completely inhibit further cell division” value (Cf1 cell line) was “at least 250 μg/ml”, the “Zeocin concentration that inhibited more than one round of cell division” value (Kc1 cell line; TC-100 + 10% FBS, 27° C.) was “greater than 50 μg/ml” and the “effect on growth rate” value (Kc1 cell line; Zeocin 10 μg/ml) was “dramatic reductions in growth rates”. The “effect on growth rate” value (Ld652Y cell line) was “dramatic reductions in growth rates”, the “Zeocin concentration required to completely inhibit further cell division” value (Sf9 cell line) was “at least 250 μg/ml” and the “Zeocin concentration that inhibited more than one round of cell division” value (SL2 cell line; TC-100 + 10% FBS, 27° C.) was greater than 75 mg/mL. For the same compound, the “effect on growth rate” value (SL2 cell line; Zeocin 10 μg/ml) was “dramatic reductions in growth rates”, the “Zeocin concentration found to inhibit growth” value (Hi5 cell line) was 800 µg/mL and the “Zeocin concentration found to inhibit growth” value (C6/36 cell line) was 250 µg/mL.

Source: patent US7135337B2, “Insect expression vectors” (priority 1997, dated 2006)
